The source of these data is patent US20140193454A1, “METHOD FROM PREPARING CERIPORIA LACERATA CULTURE EXTRACT AND PHARMACEUTICAL COMPOSITION FOR PREVENTION OR TREATMENT OF DIABETES AND DIABETIC COMPLICATIONS COMPRISING CERIPORIA LACERATA CULTURE EXTRACT AS ACTIVE INGREDIENT” (priority 2013, published 2014).

Molecules are shown by their SMILES.

Holding throughout (assay type): in vivo
The test system of assay [1] is C57BL/Ksj (BL/Ls) homozygous diabetic (db/db) mice. Description: Changes in food intake, water intake and weight of db/db mice over 6 weeks. The conditions noted are these: 300 mg/kg, versus other groups. The text has this:
(§1) In order to examine the blood glucose lowering effects of the Ceriporia lacerata culture and exopolysaccharide, C57BL/Ksj (BL/Ls) homozygous diabetic (db/db) mice (SPF) as a typical type 2 diabetes animal model were used in this experiment. db/db mice are animals in which diabetes is caused by a point mutation in the leptin receptor gene Lepr of chromosome 4. In the animals, as the leptin receptor decreases, the signaling ability decreases, and thus the blood glucose level increases. The animals are recognized as an insulin-independent diabetes model and suitable for the evaluation and comparison of experimental results on the basis of raw data. For these reason, these db/db mice were selected in this experiment. The db/db mice used in this study were 6-week-old male mice weighing about 30-40 g, and these mice were produced in Japan SLC Inc. and obtained from Central Laboratory Animal (Korea). The mice were acclimated for about 7 days, and the weight and blood glucose level thereof were measured. 30 healthy animals suitable for experimentation and having no abnormal general conditions were selected. […] During the rearing period of 6 week, a change in the weight was measured once weekly. In order to examine a change in the blood glucose level, the tail vein blood glucose level was measured using ACCU-CHEK Sensor (Germany) once weekly after 12-hr fasting. […]

Assay [2] shares this test system. Kind of assay: Organ weight of db/db mice after 6-week oral administration. The conditions noted are these: 300 mg/kg orally every day, 6 weeks. On the procedure:
In the animals, as the leptin receptor decreases, the signaling ability decreases, and thus the blood glucose level increases. The animals are recognized as an insulin-independent diabetes model and suitable for the evaluation and comparison of experimental results on the basis of raw data. For these reason, these db/db mice were selected in this experiment. […] The mice were acclimated for about 7 days, and the weight and blood glucose level thereof were measured. 30 healthy animals suitable for experimentation and having no abnormal general conditions were selected. The experimental animals were divided according to a randomized block design into a negative control group, an exopolysaccharide low-dose group (150 mg/kg), an exopolysaccharide high-dose group (300 mg/kg) and a positive control group (metformin-300 mg/kg) such that the blood glucose level and weight are equal between the groups. These mice were reared for 6 weeks. In addition, normal and control groups, each consisting of 6 animals, were kept for 6 weeks under the same conditions. All test substances and positive control substances were orally administered at the same point of time every day, and the normal and negative control groups were orally administered with water (FIG. 11). During the rearing period of 6 week, a change in the weight was measured once weekly. In order to examine a change in the blood glucose level, the tail vein blood glucose level was measured using ACCU-CHEK Sensor (Germany) once weekly after 12-hr fasting. The experimental animals were fed with a commercially available animal solid feed (Samtaco Co. Ltd., Korea) and allowed access to water ad libitum. The animals were reared under the conditions of temperature of 23±3° C. and relative humidity of 50±10% with a 12-hr light/12-hr dark cycle (lighting: a.m. 8 to p.m. 8). For sacrifice of the experimental animals, all the animals were fasted for 12 hours and anesthetized with ether. Blood was taken from the saphenous vein and placed in a tube for serum separation. Then, the blood was centrifuged at 3,000 rpm for 20 minutes to obtain serum which was to be used as a sample for analysis of biochemical markers. Immediately after sacrifice, the liver, abdominal fat and the like were extracted from all the animals, weighed, fast-frozen at -80° C. and stored until use. Portions of the extracted liver and pancreas were fixed in 4% paraformaldehyde solution and subjected to histological analysis.

Assay [3] has the same test system. Description: Weekly tail vein blood glucose level after 12-hr fasting. The conditions noted are these: after 3 weeks (diabetes control about 400 mg/dL).
From the text: as §1

As for `CN(C)C(=N)N=C(N)N` [MET, metformin], in assay [1], the feed intake entry was “significantly lower” and the water intake entry is recorded as “significantly lower”. Besides, in assay [2], the “Abdominal fat (W/BW)” value is 2.564 ± 0.33 W/BW, the “Kidney (W/BW)” value was found to be 0.39 ± 0.03 W/BW, the “Kidney fat (W/BW)” value was 0.89 ± 0.13 W/BW and the “Liver (W/BW)” value is reported as 2.60 ± 0.19 W/BW. Also, the “Spleen (W/BW)” value in assay [2] stood at 0.03 ± 0.02 W/BW. For the same compound, the “blood glucose level after 12-hr fasting” value in assay [3] was “no increase in the blood glucose level”.
